Reference: patent publication US7651999B2, “2′, 5′-oligoadenylate analogs” (Sankyo Company, Limited, priority 2002, dated 2010)
Read-outs that look alike come from different tables or passages of the source.

Tested on: Human lung cancer cell line A549 cells
Settings: 72 hours, MTT, 0.001-10 μM tested
[1] = read-out: 50% Growth inhibitory concentrations of the subject compounds with respect to A549 cells, Experiment 2
[2] = read-out: 50% Growth inhibitory concentrations of the subject compounds with respect to A549 cells, Experiment 1
[3] = read-out: 50% Growth inhibitory concentrations of the subject compounds with respect to A549 cells, Experiment 3

Procedure: Human lung cancer cell line A549 cells were plated at a density of 800 cells/200 μl in a 96-well plate using RPMI1640 (Gibco BRL) (containing 10% Fetal Bovine Serum (Hyclone)) for the medium followed by culturing overnight in 5% CO2 at 37° C. Each 2-5A analog was added to each well so that the final concentration became 0.001-10 μM, followed by culturing for 72 hours (3 days) (n=3 or 4). After culturing for 72 hours (3 days), MTT (3-[4,5-dimethylthiazol-2-yl]-2,5-diphenyltetrazolium bromide) was added in 50 μl aliquots to each well at a MTT/RPMI1640 concentration of 5 mg/ml, followed by additionally culturing for 4 hours. After 4 hours, the medium was removed and 150 μl of dimethyl sulfoxide were added to each well. After shaking for 5 minutes, UV absorbance at 540 nm, was measured to determine the relative ratio of the number of viable cells of the compound dose group to the number of viable cells of an untreated cell group followed by calculation of the IC50 concentration that inhibits cell growth by 50%.

Compound	IC50 [1] [nM]	IC50 [2] [nM]	IC50 [3] [nM]
CCCCCCCCCCCCCC(=O)OCCSP(=O)(O)OC[C@H]1O[C@@H](n2cnc3c(N)ncnc32)C(OP(=O)(O)OC[C@H]2O[C@@H](n3cnc4c(N)ncnc43)C(OP(=O)(O)OC[C@]34CCCOC3C(O)[C@H](n3cnc5c(N)ncnc53)O4)C2O)C1OC (some centres unmarked) [Example 16]	90		
COC1C(OP(=O)(S)OC[C@H]2O[C@@H](n3cnc4c(N)ncnc43)C(OP(=O)(O)OC[C@]34CCCOC3C(O)[C@H](n3cnc5c(N)ncnc53)O4)C2O)[C@H](n2cnc3c(N)ncnc32)O[C@@H]1COP(=O)(O)SCOC(=O)C(C)(C)C (some centres unmarked) [Example 9]		1390	
CCCCCCCCCC(=O)OCCSP(=O)(O)OC[C@H]1O[C@@H](n2cnc3c(N)ncnc32)C(OP(=O)(O)OC[C@H]2O[C@@H](n3cnc4c(N)ncnc43)C(OP(=O)(O)OC[C@]34CCCOC3C(O)[C@H](n3cnc5c(N)ncnc53)O4)C2O)C1OC (some centres unmarked) [Example 17]	350		
Nc1ncnc2c1ncn2[C@@H]1O[C@H](COP(O)(=S)OC2C(O)[C@@H](COP(O)(=S)OC3C(O)[C@@H](COP(O)(O)=S)O[C@H]3n3cnc4c(N)ncnc43)O[C@H]2n2cnc3c(N)ncnc32)C(O)C1O (some centres unmarked) [Example 4]	610	480	380
COC1C(OP(=O)(O)OC[C@H]2O[C@@H](n3cnc4c(N)ncnc43)C(OP(=O)(O)OC[C@]34CCCOC3C(O)[C@H](n3cnc5c(N)ncnc53)O4)C2O)[C@H](n2cnc3c(N)ncnc32)O[C@@H]1COP(O)(O)=S (some centres unmarked) [Example 2]	910	1530	
Nc1ncnc2c1ncn2[C@@H]1O[C@@]2(COP(=O)(O)OC3C(O)[C@@H](COP(=O)(S)OC4C(O)[C@@H](COP(=O)(O)S)O[C@H]4n4cnc5c(N)ncnc54)O[C@H]3n3cnc4c(N)ncnc43)CCCOC2C1O (some centres unmarked) [Example 8]		2230	
COC1C(OP(=O)(O)OC[C@H]2O[C@@H](n3cnc4c(N)ncnc43)C(OP(=O)(O)OC[C@]34CCCOC3C(O)[C@H](n3cnc5c(N)ncnc53)O4)C2O)[C@H](n2cnc3c(N)ncnc32)O[C@@H]1COP(=O)(O)SCCO (some centres unmarked) [Example 33]			2150
COC1C(OP(=O)(O)OC[C@H]2O[C@@H](n3cnc4c(N)ncnc43)C(OP(=O)(O)OC[C@]34CCCOC3C(O)[C@H](n3cnc5c(N)ncnc53)O4)C2O)[C@H](n2cnc3c(N)ncnc32)O[C@@H]1COP(=O)(O)SCCOC(=O)C(C)(C)C (some centres unmarked) [Example 13]	2540		
COC1C(OP(=O)(O)OC[C@H]2O[C@@H](n3cnc4c(N)ncnc43)C(OP(=O)(O)OC[C@]34CCCOC3C(O)[C@H](n3cnc5c(N)ncnc53)O4)C2O)[C@H](n2cnc3c(N)ncnc32)O[C@@H]1COP(=O)(O)SCCOC(=O)c1ccccc1 (some centres unmarked) [Example 14]	2340		
COC1C(OP(=O)(O)OC[C@H]2O[C@@H](n3cnc4c(N)ncnc43)C(OP(=O)(O)OC[C@]34CCCOC3C(O)[C@H](n3cnc5c(N)ncnc53)O4)C2O)[C@H](n2cnc3c(N)ncnc32)O[C@@H]1COP(=O)(O)SCOC(=O)C(C)(C)C (some centres unmarked) [Example 5]	320	400	
